The results in this text go back to patent US8512752B2, “Hyaluronic acid derivatives obtained via “click chemistry” crosslinking” (Fidia Farmaceutici S.p.A., priority 2006, dated 2013).

SMILES strings stand for the structures. Counter-ions that a name gives are not always drawn.

Common to all, as to assay type: physicochemical
Data set [1] is described as follows: release of doxorubicin hydrochloride from hydrogel of hyaluronic acid with 1,4-diethynylbenzene. The note with it: hydrogel of HA (product 1) with 1,4-diethynylbenzene, catalytic CuSO4.5H2O and ascorbic acid, Example 13; release in 100 ml distilled water. As to the method: (§1) 100 mg of product 1 are dissolved in 1.1 ml of distilled water and 3 mg of 1,4-Diethynylbenzene are dissolved separately in 0.2 ml of DMSO, whereas 23.2 mg of doxorubicin hydrochloride are dissolved in 0.5 ml of distilled water. The three solutions are mixed, 0.1 ml of an aqueous solution obtained with 50 mg of CuSO4.5H2O in 1 ml of H2O and 0.1 ml of an aqueous solution of 20 mg of ascorbic acid are then added. The mixture is stirred vortically for a few minutes. The rapidly formed gel (see FIG. 26) incorporates the doxorubicin hydrochloride inside.
(§2) The quantity of doxorubicin hydrochloride released from the hydrogel, in 100 ml of distilled water, is determined by means of U.V. spectrophotometric measurements at λ=486 nm by interpolation of the absorbance values on a calibration line constructed using solutions of the drug at known concentration.
The release measurements of the drug are effected on the hydrogel described above.

Data set [2] in a line: release of doxorubicin hydrochloride from hydrogel of crosslinked hyaluronic acid obtained with catalytic CuCl. The note with it: hydrogel of HA (product 1 + product 2) crosslinked with catalytic CuCl, Example 11; release in 100 ml distilled water. As to the method:
29 mg of doxorubicin hydrochloride are dissolved in 2 ml of water and 50 mg of product 1 and 50 mg of product 2 synthesized as described above, are then added. 830 μL of a 1% w/V solution of CuCl are subsequently added to the solution and the gel is formed after a few minutes directly incorporating the drug present in solution.
The quantity of doxorubicin hydrochloride released from the hydrogel in 100 ml of distilled water, is determined by U.V. spectrophotometric measurements at λ=486 nm by interpolation of the absorbance values on a calibration line constructed using solutions of the drug at known concentration.
(§3) The release measurements of the drug are performed on the hydrogel described above.

Data set [3] can be described thus: release of doxorubicin hydrochloride from hydrogel of hyaluronic acid with 1,6-heptadiyne. The note with it: hydrogel of HA (product 1) with 1,6-heptadiyne, catalytic CuSO4.5H2O and ascorbic acid, Example 13; release in 100 ml distilled water. On the procedure:
as §1, with “water; a solution” for “water and 3 mg”, “140 μl of 1,6-Heptadiyne” for “1,4-Diethynylbenzene are dissolved separately”, “9.86” for “0.2”, “DMSO are prepared separately,” for “DMSO,”, “solution of hyaluronic acid is mixed with that of doxorubicin and with 0.2 ml of that of 1,6-Heptadiyne;” for “three solutions are mixed,”, “28)” for “26)”
as §2

Data set [4] is described as follows: release of doxorubicin hydrochloride from hydrogel of hyaluronic acid with 1,8-Nonadiyne. The settings on record: hydrogel of HA (product 1) with 1,8-Nonadiyne, catalytic CuSO4.5H2O and ascorbic acid, Example 13; release in 100 ml distilled water. On the procedure:
as §1, with “water; a solution” for “water and 3 mg”, “200 μl of 1,8-Nonadiyne” for “1,4-Diethynylbenzene are dissolved separately”, “11.23” for “0.2”, “DMSO are prepared separately,” for “DMSO,”, “solution of hyaluronic acid is mixed with that of doxorubicin and with 0.2 ml of that of 1,8-Nonadiyne;” for “three solutions are mixed,”, “31)” for “26)”
as §2, §3

Data set [5] in a line: release of benzydamine hydrochloride from hydrogel of crosslinked hyaluronic acid obtained with catalytic CuSO4.5H2O. The settings on record: hydrogel of HA (product 1 + product 2) crosslinked with catalytic CuSO4.5H2O and ascorbic acid, Example 11; release in 100 ml distilled water. On the procedure: 50 mg of product 1 and 50 mg of product 2 are dissolved in 1.3 ml of distilled water and separately 13.8 mg of benzydamine hydrochloride are dissolved in 0.5 ml of distilled water. The solution of hyaluronic acid is mixed with that of benzydamine hydrochloride; 0.1 ml of an aqueous solution obtained with 50 mg of CuSO4.5H2O in 1 ml of H2O and 0.1 ml of an aqueous solution of 20 mg of ascorbic acid are then added.
The mixture is stirred vortically for a few minutes. The rapidly formed gel incorporates the benzydamine hydrochloride inside.
(§4) The quantity of benzydamine hydrochloride released from the hydrogel, in 100 ml of distilled water, is determined by means of U.V. spectrophotometric measurements at λ=308 nm by interpolation of the absorbance values on a calibration line constructed using solutions of the drug at known concentration.
as §3

Data set [6] in a line: release of benzydamine hydrochloride from hydrogel of hyaluronic acid with 1,6-Heptadiyne. The note with it: hydrogel of HA (product 1) with 1,6-heptadiyne, catalytic CuSO4.5H2O and ascorbic acid, Example 13; release in 100 ml distilled water. As to the method:
100 mg of product 1 are dissolved in 1.1 ml of distilled water; a solution of 140 μl of 1,6-Heptadiyne in 9.86 ml of DMSO are prepared separately, whereas 13.8 mg of benzydamine hydrochloride are dissolved in 0.5 ml of distilled water. The solution of hyaluronic acid is mixed with that of benzydamine and with 0.2 ml of that of 1,6-Heptadiyne; 0.1 ml of an aqueous solution obtained with 50 mg of CuSO4.5H2O in 1 ml of H2O and 0.1 mL of an aqueous solution of 20 mg of ascorbic acid are then added. The mixture is stirred vortically for a few minutes. The rapidly formed gel incorporates the benzydamine hydrochloride inside.
as §4

Data set [7] can be described thus: release of benzydamine hydrochloride from hydrogel of crosslinked hyaluronic acid obtained with catalytic CuCl. The settings on record: hydrogel of HA (product 1 + product 2) crosslinked with catalytic CuCl, Example 11; release in 100 ml phosphate buffer solution pH=7.4. As to the method:
69 mg of benzydamine hydrochloride are dissolved in 2 ml of water and 50 mg of product 1 and 50 mg of product 2 synthesized as described above, are then added.
830 μL of a 1% w/V solution of CuCl are subsequently added to the solution and the gel is formed after a few minutes directly incorporating the drug.
The quantity of benzydamine hydrochloride released from the hydrogel, in 100 ml of a phosphate buffer solution pH=7.4, is determined by means of U.V. spectrophotometric measurements at λ=308 nm by interpolation of the absorbance values on a calibration line constructed using solutions of the drug at a known concentration.
as §3

Take `COc1cccc2c1C(=O)c1c(O)c3c(c(O)c1C2=O)C[C@@](O)(C(=O)CO)C[C@@H]3O[C@H]1C[C@H](N)[C@H](O)[C@H](C)O1` [doxorubicin hydrochloride]: the “maximum quantity released, of the quantity of drug initially incorporated in the gel” value in data set [1] was 50%; in data set [2], 25%; in data set [3], 23%; in data set [4], 14%. For the same compound, the “period over which the maximum quantity of drug is released” value in data set [1] is “about 50 h”; in data set [2], “about 160 h”; in data set [3], “about 250 h”; in data set [4] it was “about 100 h”.
Regarding `CN(C)CCCOc1nn(Cc2ccccc2)c2ccccc12` [benzydamine hydrochloride], the “maximum quantity released, of the quantity of drug initially incorporated in the gel” value is reported as 70% in data set [5], 80% in data set [6] and 88% in data set [7]. For the same compound, the “period over which the maximum quantity of drug is released” value in data set [5] is reported as “about 5 h”; in data set [6], “about 6 h”; in data set [7] it was “about 3.5 h”.
